Reference: patent US20210115104A1, “AMYLIN ANALOGUES” (Zealand Pharma A/S, priority 2015, published 2021)
*1 amine or outer side, *2 acyl side, *3 side chain or, on linkers, in order; H or OH if unused. Where a SMILES comes first, the peptide text is derived from it. Bridges are numbered along the chain shown (N, C = ends). [ ]: non-standard residue; d: D form. The star is where a group is joined. C20 diacid = O=C(O)CCCCCCCCCCCCCCCCCCC(=O)*; γGlu = O=C(O)[C@H](CCC(=O)[*:2])N[*:1]; Hyp = O=C(O)[C@@H]1C[C@@H](O)CN1; NMeI = CC[C@H](C)[C@H](NC)C(=O)O; Aad = N[C@@H](CCCC(=O)O)C(=O)O; Sar = CNCC(=O)O

Columns and labels:
[1] = Assessment of physical stability (Thioflavin T fibrillation); type: physicochemical; design: key: FND = fibrillation not detected; FD = fibrillation detected; settings: 1 mg/ml, 40° C., ThT; for Fibrillation pH 4.0 (Ac): 50 mM acetate buffer pH 4.0, 96 hours; for Fibrillation pH 7.0 (His): 50 mM histidine buffer pH 7.0, 96 hours; for Fibrillation pH 7.0 (Phos.): 50 mM phosphate buffer pH 7.0, 96 hours
Procedure: Solutions containing (i) 1 mg/ml of test peptide, 40 μM ThT and 50 mM phosphate (Ph) buffer (pH 7.0), (ii) 1 mg/ml of test peptide, 40 μM ThT and 50 mM histidine (His) buffer (pH 7.0), and (iii) 1 mg/ml of test peptide, 40 μM ThT and 50 mM acetate (Ac) buffer (pH 4.0), were loaded in a 96-well black fluorescence plate (clear bottom) in triplicate. Data were collected at fixed intervals of 10 min, each preceded by 300 s of automixing (agitation), over a period of 96 hours at 40° C. Physical stability, expressed as lag-time of fibril formation (in hours), was defined as the intersection between two linear regressions representing the initial stable phase and the growth phase.

[2] = Assessment of chemical stability (RP-HPLC normalized purity); type: physicochemical; settings: for Normalized purity after 7 days, 40° C., pH 4: pH 4, 0.2 mg/ml; for Normalized purity after 7 days, 40° C., pH 4 / Normalized purity after 7 days, 40° C., pH 6 / Normalized purity after 7 days, 40° C., pH 7.5 / Normalized purity after 7 days, 40° C., pH 9: Table 1; for Normalized purity after 7 days, 40° C., pH 6: pH 6, 0.2 mg/ml; for Normalized purity after 7 days, 40° C., pH 7.5: pH 7.5, 0.2 mg/ml; for Normalized purity after 7 days, 40° C., pH 9: pH 9, 0.2 mg/ml
Procedure: Samples of each test peptide were dissolved in MilliQ™ water, and the pH of the solution was adjusted to pH 4, pH 6, pH 7.5 or pH 9, respectively, using either HCl or NaOH. The final peptide concentration was 0.2 mg/ml. Samples were placed in glass vials and incubated at 40° C. The samples were analyzed by RP-HPLC on a C8 column with gradient elution using an ammonium formate/water eluent system, or on a C18 column with gradient elution using a trifluoroacetic acid/water eluent system. The area-percentage (area-%) of the main peak after incubation time T=t (relative to time T=0) was determined by UV spectroscopy at 220 nm.
The purity was first determined as follows:
Purity(area-%)=(area of main peak/total area of all peaks)×100.
The purity was then normalized between time points by setting purity at time 0 (T=0) to 100 for each pH value for a given peptide, as follows:
Normalised area-% at time t (T=t)=[area-%(T=t)/area-%(T=0)]×100.
The normalized purity values in Table 1 were determined after 7 days of incubation.
The chemical stability assessment described in Example 6 was repeated for four pairs of compounds, each differing only by the presence or absence of an Asn-Asn (N—N) doublet at positions 21 and 22.

| Fibrillation pH 4.0 (Ac) [1] | Fibrillation pH 7.0 (His) [1] | Fibrillation pH 7.0 (Phos.) [1] | Normalized purity after 7 days, 40° C., pH 4 [2] | Normalized purity after 7 days, 40° C., pH 6 [2] | Normalized purity after 7 days, 40° C., pH 7.5 [2] | Normalized purity after 7 days, 40° C., pH 9 [2] | Normalized purity pH 4 (Table 5) ([2]; pH 4, repeat of Example 6 for pairs with/without Asn-Asn at 21-22) | Normalized purity pH 6 (Table 5) ([2]; pH 6, repeat of Example 6 for pairs with/without Asn-Asn at 21-22) | Normalized purity pH 7.5 (Table 5) ([2]; pH 7.5, repeat of Example 6 for pairs with/without Asn-Asn at 21-22) | Normalized purity pH 9 (Table 5) ([2]; pH 9, repeat of Example 6 for pairs with/without Asn-Asn at 21-22) | SMILES |
| --- | --- | --- | --- | --- | --- | --- | --- | --- | --- | --- | --- |
| FND | FND | FND | A (A = >90%) | B (B = 70-90%) | A (A = >90%) | A (A = >90%) |  |  |  |  | CC[C@H](C)[C@@H](C(=O)N[C@@H](CC(C)C)C(=O)N[C@@H](CO)C(=O)N[C@@H](CO)C(=O)N[C@H](C(=O)N[C@@H](CCC(=O)O)C(=O)N[C@H](C(=O)NCC(=O)N[C@@H](CO)C(=O)N[C@@H](CC(N)=O)C(=O)N[C@H](C(=O)N1C[C@H](O)C[C@H]1C(N)=O)[C@@H](C)O)C(C)C)[C@@H](C)O)N(C)C(=O)[C@H](C)NC(=O)CN(C)C(=O)[C@H](Cc1ccccc1)NC(=O)[C@H](CO)NC(=O)[C@H](CO)NC(=O)[C@H](CCCNC(=N)N)NC(=O)[C@H](CCC(=O)O)NC(=O)[C@H](CC(C)C)NC(=O)[C@H](Cc1ccccc1)NC(=O)[C@H](Cc1c[nH]cn1)NC(=O)[C@H](C)NC(=O)[C@H](CC(C)C)NC(=O)[C@H](CCCNC(=N)N)NC(=O)[C@H](CCC(=O)O)NC(=O)[C@@H](NC(=O)[C@H](C)NC(=O)[C@@H]1CSSC[C@H](NC(=O)[C@H](CCCNC(=N)N)NC(=O)CC[C@H](NC(=O)CCCCCCCCCCCCCCCCCCC(=O)O)C(=O)O)C(=O)NCC(=O)N[C@@H]([C@@H](C)O)C(=O)N[C@@H](C)C(=O)N[C@@H]([C@@H](C)O)C(=O)N1)[C@@H](C)O [Compound 8, [19CD]-isoGlu-R-C( )-GTAT-C( )-ATERLAHFLERSSF-Gly(Me)-A-Ile(Me)-LSSTEVGSNT-Hyp-NH2] ({C20 diacid-γGlu}-RCGTATCATERLAHFLERSSF[Sar]A[NMeI]LSSTEVGSNT[Hyp]-NH2; disulfide 2-7) |
| FND | FD | FD | A (A = >90%) | A (A = >90%) | B (B = 70-90%) | B (B = 70-90%) |  |  |  |  | CC[C@H](C)[C@@H](C(=O)N[C@@H](CC(C)C)C(=O)N[C@@H](CO)C(=O)N[C@@H](CO)C(=O)N[C@H](C(=O)N[C@@H](CCC(=O)O)C(=O)N[C@H](C(=O)NCC(=O)N[C@@H](CO)C(=O)N[C@@H](CCCC(=O)O)C(=O)N[C@H](C(=O)N1C[C@H](O)C[C@H]1C(N)=O)[C@@H](C)O)C(C)C)[C@@H](C)O)N(C)C(=O)[C@H](C)NC(=O)CN(C)C(=O)[C@H](Cc1ccccc1)NC(=O)[C@H](CO)NC(=O)[C@H](CO)NC(=O)[C@H](CCCNC(=N)N)NC(=O)[C@@H](NC(=O)[C@H](CC(C)C)NC(=O)[C@H](Cc1ccccc1)NC(=O)[C@H](Cc1c[nH]cn1)NC(=O)[C@H](C)NC(=O)[C@H](CC(C)C)NC(=O)[C@H](CCCNC(=N)N)NC(=O)[C@H](CCC(=O)O)NC(=O)[C@@H](NC(=O)[C@H](C)NC(=O)[C@@H]1CSSC[C@H](NC(=O)[C@H](CCCNC(=N)N)NC(=O)CC[C@H](NC(=O)CCCCCCCCCCCCCCCCCCC(=O)O)C(=O)O)C(=O)NCC(=O)N[C@@H]([C@@H](C)O)C(=O)N[C@@H](C)C(=O)N[C@@H]([C@@H](C)O)C(=O)N1)[C@@H](C)O)[C@@H](C)O [Compound 12, [19CD]-isoGlu-R-C( )-GTAT-C( )-ATERLAHFLTRSSF-Gly(Me)-A-Ile(Me)-LSSTEVGS-Aad-T-Hyp-NH2] ({C20 diacid-γGlu}-RCGTATCATERLAHFLTRSSF[Sar]A[NMeI]LSSTEVGS[Aad]T[Hyp]-NH2; disulfide 2-7) |
| FND | FD | FND | A (A = >90%) | A (A = >90%) | A (A = >90%) | A (A = >90%) |  |  |  |  | CC[C@H](C)[C@@H](C(=O)N[C@@H](CC(C)C)C(=O)N[C@@H](CO)C(=O)N[C@@H](CO)C(=O)N[C@H](C(=O)N[C@@H](CCC(=O)O)C(=O)N[C@H](C(=O)NCC(=O)N[C@@H](CO)C(=O)N[C@@H](CCC(=O)O)C(=O)N[C@H](C(=O)N1CCC[C@H]1C(N)=O)[C@@H](C)O)C(C)C)[C@@H](C)O)N(C)C(=O)[C@H](C)NC(=O)CN(C)C(=O)[C@H](Cc1ccccc1)NC(=O)[C@H](CCCNC(=N)N)NC(=O)[C@H](Cc1c[nH]cn1)NC(=O)[C@H](CC(C)C)NC(=O)[C@H](Cc1ccccc1)NC(=O)[C@H](Cc1c[nH]cn1)NC(=O)[C@H](C)NC(=O)[C@H](CC(C)C)NC(=O)[C@H](CCCNC(=N)N)NC(=O)[C@H](CCC(N)=O)NC(=O)[C@@H](NC(=O)[C@H](C)NC(=O)[C@@H]1CSSC[C@H](NC(=O)[C@H](CCCNC(=N)N)NC(=O)CC[C@H](NC(=O)CCCCCCCCCCCCCCCCCCC(=O)O)C(=O)O)C(=O)N[C@@H](CC(N)=O)C(=O)N[C@@H]([C@@H](C)O)C(=O)N[C@@H](C)C(=O)N[C@@H]([C@@H](C)O)C(=O)N1)[C@@H](C)O [Compound 14, [19CD]-isoGlu-R-C( )-NTAT-C( )-ATQRLAHFLHRF-Gly(Me)-A-Ile(Me)-LSSTEVGSETP-NH2] ({C20 diacid-γGlu}-RCNTATCATQRLAHFLHRF[Sar]A[NMeI]LSSTEVGSETP-NH2; disulfide 2-7) |
| FND | FD | FD | A (A = >90%) | A (A = >90%) | B (B = 70-90%) | B (B = 70-90%) | A (A = >90%) | A (A = >90%) | B (B = 70-90%) | B (B = 70-90%) | CC[C@H](C)[C@H](NC(=O)[C@@H]1CCCN1C(=O)CNC(=O)[C@H](Cc1ccccc1)NC(=O)[C@H](CC(N)=O)NC(=O)[C@H](CC(N)=O)NC(=O)[C@H](CO)NC(=O)[C@H](CO)NC(=O)[C@H](Cc1c[nH]cn1)NC(=O)[C@H](Cc1c[nH]cn1)NC(=O)[C@H](CC(C)C)NC(=O)[C@H](Cc1ccccc1)NC(=O)[C@H](CCC(=O)O)NC(=O)[C@H](C)NC(=O)[C@H](CC(C)C)NC(=O)[C@H](CCCNC(=N)N)NC(=O)[C@H](CCC(N)=O)NC(=O)[C@@H](NC(=O)[C@H](C)NC(=O)[C@@H]1CSSC[C@H](NC(=O)[C@H](CCCNC(=N)N)NC(=O)CC[C@H](NC(=O)CCCCCCCCCCCCCCCCCCC(=O)O)C(=O)O)C(=O)N[C@@H](CC(N)=O)C(=O)N[C@@H]([C@@H](C)O)C(=O)N[C@@H](C)C(=O)N[C@@H]([C@@H](C)O)C(=O)N1)[C@@H](C)O)C(=O)N[C@@H](CC(C)C)C(=O)N1CCC[C@H]1C(=O)N1CCC[C@H]1C(=O)N[C@H](C(=O)N[C@@H](CC(N)=O)C(=O)N[C@H](C(=O)NCC(=O)N[C@@H](CO)C(=O)N[C@@H](CC(N)=O)C(=O)N[C@H](C(=O)N1CCC[C@H]1C(N)=O)[C@@H](C)O)C(C)C)[C@@H](C)O [NN96, N-α-[(S)-4-carboxy-4-(19-carboxynonadecanoylamino)butyryl]-[Arg1, Glu14, His17, Pro37]-pramlintide-NH2, reference compound] ({C20 diacid-γGlu}-RCNTATCATQRLAEFLHHSSNNFGPILPPTNVGSNTP-NH2; disulfide 2-7) |
